Patent US9932338B2, “Compounds having muscarinic receptor antagonist and BETA2 adrenergic receptor agonist activity” (CHIESI FARMACEUTICI S.P.A., priority 2015, dated 2018)
Read-outs that look alike come from different tables or passages of the source.

Assays:
Human β2 adrenoceptor = molecular target: T1, Human β2 adrenoceptor (Homo sapiens, UniProt P07550); test: β2 adrenoceptor radioligand binding assay; conditions: human β2 adrenoceptor membranes, 125-I cyanopindolol, Ki from IC50 by Cheng and Prusoff
T1 construct: purchased Perkin Elmer
T1 sequence (P07550 whole entry): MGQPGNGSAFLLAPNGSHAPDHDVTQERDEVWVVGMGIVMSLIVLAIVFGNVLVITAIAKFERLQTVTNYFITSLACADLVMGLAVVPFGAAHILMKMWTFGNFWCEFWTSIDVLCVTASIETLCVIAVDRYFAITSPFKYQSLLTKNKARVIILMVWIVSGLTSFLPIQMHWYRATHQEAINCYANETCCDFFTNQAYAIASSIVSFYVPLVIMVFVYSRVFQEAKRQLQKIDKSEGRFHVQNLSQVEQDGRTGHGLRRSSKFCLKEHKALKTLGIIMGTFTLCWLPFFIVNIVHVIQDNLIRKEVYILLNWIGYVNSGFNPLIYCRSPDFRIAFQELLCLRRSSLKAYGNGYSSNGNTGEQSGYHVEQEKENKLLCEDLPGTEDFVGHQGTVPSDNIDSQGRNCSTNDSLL
Experimental: Example. β2 Adrenoceptor Radioligand Binding Assay
Human β2 adrenoceptor membranes (7.5 ug/well) from Perkin Elmer were incubated with 0.3 nM 125-I Cyanopindolol with or without test compounds, or a saturating concentration of s-propranolol (2 μM) for the determination of non-specific binding. The assay was carried out in 96-well polypropylene plates in a volume of 200 ul. The assay buffer used was 25 mM HEPES, 0.5% BSA (w/v), 1 mM EDTA, 0.02% ascorbic acid (v/v), (pH 7.4). The final assay concentration of DMSO was 0.5% (v/v). The plates were sealed and incubated for 1 hour at room temperature on an orbital shaker (slow speed). Membranes were harvested onto 96-well unifilter GF/C filter plates pre-treated with 0.5% polyethyleneimine (v/v), using a filter manifold, washed six times with 200 μl of wash buffer containing 10 mM HEPES and 500 mM NaCl. The plates were dried before addition of 50 μl of microscint-0, sealed then read in a Trilux Microbeta scintillation counter. IC50 values are determined from competition curves using a non-linear curve fitting program. Ki values were calculated from IC50 values by the Cheng and Prusoff equation.

Human M3 receptor = molecular target: T2, Human M3 receptor (Homo sapiens, UniProt P20309); test: M3 receptor radioligand binding assay; conditions: human M3 receptor membranes, [N-methyl-3H] scopolamine methyl chloride, Ki from IC50 by Cheng and Prusoff
T2 construct: purchased Perkin Elmer
T2 sequence (P20309 whole entry): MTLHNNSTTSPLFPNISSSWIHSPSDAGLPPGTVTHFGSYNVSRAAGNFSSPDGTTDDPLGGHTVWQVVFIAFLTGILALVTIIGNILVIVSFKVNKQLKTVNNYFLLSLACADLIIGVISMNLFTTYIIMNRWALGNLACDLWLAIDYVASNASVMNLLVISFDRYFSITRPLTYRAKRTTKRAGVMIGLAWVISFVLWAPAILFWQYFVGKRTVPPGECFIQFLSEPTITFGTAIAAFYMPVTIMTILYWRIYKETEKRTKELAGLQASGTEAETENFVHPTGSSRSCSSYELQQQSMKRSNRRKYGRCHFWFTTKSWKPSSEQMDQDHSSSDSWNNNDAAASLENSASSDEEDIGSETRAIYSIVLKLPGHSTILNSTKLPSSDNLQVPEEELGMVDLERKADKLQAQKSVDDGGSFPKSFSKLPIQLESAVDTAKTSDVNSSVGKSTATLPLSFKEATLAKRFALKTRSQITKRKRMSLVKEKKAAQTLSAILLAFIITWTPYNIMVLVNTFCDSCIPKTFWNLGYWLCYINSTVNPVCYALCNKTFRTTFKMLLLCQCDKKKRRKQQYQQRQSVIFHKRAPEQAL
Experimental: Example. M3 Receptor Radioligand Binding Assay
The assay was carried out in 96-well polypropylene plates in a volume of 250 ul. […] The final assay concentration of DMSO was 0.5% (v/v). The plates were sealed and incubated for 2 hours at room temperature on an orbital shaker (slow speed). Membranes were harvested onto 96-well unifilter GF/C filter plates pre-treated with 0.5% polyethyleneimine (v/v), using a filter manifold, washed four times with 200 μl of assay buffer. The plates were dried before addition of 50 μl of microscint-0, sealed then read in a Trilux Microbeta scintillation counter. IC50 values are determined from competition curves using a non-linear curve fitting program. Ki values were calculated from IC50 values by the Cheng and Prusoff equation.

[1] = read-out: B2 binding affinity (Ki class)
[2] = read-out: M3 binding affinity (Ki class)

Row | Compound | Ki (Human β2 adrenoceptor; [1]) [nM] | Ki (Human M3 receptor; [2]) [nM] | Ki (Human β2 adrenoceptor; B2 binding affinity (Ki class)) [nM] | Ki (Human M3 receptor; M3 binding affinity (Ki class)) [nM]
1 | CC(C)N1CCC(COC(=O)C2(NC(=O)c3cccc(OCCCCCCNC[C@H](O)c4ccc(O)c5[nH]c(=O)ccc45)c3)CCc3ccccc32)CC1 (stereo partly drawn) [Compound 7, (1-isopropylpiperidin-4-yl)methyl 1-(3-((6-(((R)-2-hydroxy-2-(8-hydroxy-2-oxo-1,2-dihydroquinolin-5-yl)ethyl)amino)hexyl)oxy)benzamido)-2,3-dihydro-1H-indene-1-carboxylate] | > 10 | < 1 |  | 
2 | O=C(NCCCCNC[C@H](O)c1ccc(O)c2[nH]c(=O)ccc12)c1ccc(CNC2(C(=O)O[C@@H]3CCCN(Cc4ccccc4)C3)CCc3ccccc32)s1 (single isomer, unassigned; stereoisomer 1) [Compound 25] | > 10 | < 1 |  | 
3 | O=C(NCCCCNC[C@H](O)c1ccc(O)c2[nH]c(=O)ccc12)c1ccc(CNC2(C(=O)OCC3CCN(Cc4ccccc4)CC3)CCc3ccccc32)s1 (stereo partly drawn) [Compound 16, (1-benzylpiperidin-4-yl)methyl 1-(((5-((4-(((R)-2-hydroxy-2-(8-hydroxy-2-oxo-1,2-dihydroquinolin-5-yl)ethyl)amino)butyl)carbamoyl)thiophen-2-yl)methyl)amino)-2,3-dihydro-1H-indene-1-carboxylate] | 1 to 10 | < 1 |  | 
4 | O=C(Cc1ccc(CC(=O)NC2(C(=O)O[C@H]3CN4CCC3CC4)CCc3ccccc32)cc1)Nc1ccc(CNC[C@H](O)c2ccc(O)c3[nH]c(=O)ccc23)cc1 (stereo partly drawn) [Compound 18, (R)-quinuclidin-3-yl 1-(2-(4-(2-((4-((((R)-2-hydroxy-2-(8-hydroxy-2-oxo-1,2-dihydroquinolin-5-yl)ethyl)amino)methyl)phenyl)amino)-2-oxoethyl)phenyl)acetamido)-2,3-dihydro-1H-indene-1-carboxylate] | > 10 | 1 to 10 |  | 
5 | O=C(NC1(C(=O)OCC2CCN(Cc3ccccc3)CC2)CCc2ccccc21)c1cccc(OCCCCCCNC[C@H](O)c2ccc(O)c3[nH]c(=O)ccc23)c1 (stereo partly drawn) [Compound 9, (1-benzylpiperidin-4-yl)methyl 1-(3-((6-(((R)-2-hydroxy-2-(8-hydroxy-2-oxo-1,2-dihydroquinolin-5-yl)ethyl)amino)hexyl)oxy)benzamido)-2,3-dihydro-1H-indene-1-carboxylate] | > 10 | < 1 |  | 
6 | O=C(NCCCCNC[C@H](O)c1ccc(O)c2[nH]c(=O)ccc12)c1ccc(CNC2(C(=O)OCC3CCN(Cc4ccccc4)CC3)CCc3ccccc32)s1 (single isomer, unassigned; stereoisomer 2) [Compound 23] | 1 to 10 | < 1 |  | 
7 | O=C(NCCCCNC[C@H](O)c1ccc(O)c2[nH]c(=O)ccc12)c1ccc(CNC2(C(=O)O[C@@H]3CCN(Cc4ccccc4)C3)CCc3ccccc32)s1 (single isomer, unassigned; stereoisomer 1) [Compound 26] | > 10 | > 10 |  | 
8 | Cc1cccc2c1CCC2(NC(=O)c1cccc(OCCCCCNC[C@H](O)c2ccc(O)c3[nH]c(=O)ccc23)c1)C(=O)O[C@H]1CN2CCC1CC2 (single isomer, unassigned; diastereoisomer 2) [Compound 5B] | < 1 | < 1 |  | 
9 | O=C(O[C@H]1CN2CCC1CC2)C1(NCc2cccc(OCc3cccc(OCCCCNC[C@H](O)c4ccc(O)c5[nH]c(=O)ccc45)c3)c2)CCc2ccccc21 (stereo partly drawn) [Compound 21, (R)-quinuclidin-3-yl 1-((3-((3-(4-(((R)-2-hydroxy-2-(8-hydroxy-2-oxo-1,2-dihydroquinolin-5-yl)ethyl)amino)butoxy)benzyl)oxy)benzyl)amino)-2,3-dihydro-1H-indene-1-carboxylate] | < 1 | < 1 |  | 
10 | O=C(NCCCCNC[C@H](O)c1ccc(O)c2[nH]c(=O)ccc12)c1ccc(CNC2(C(=O)OCC3CCN(Cc4cccc(O)c4)CC3)CCc3ccccc32)s1 (stereo partly drawn) [Compound 15, (1-(3-hydroxybenzyl)piperidin-4-yl)methyl 1-(((5-((4-(((R)-2-hydroxy-2-(8-hydroxy-2-oxo-1,2-dihydroquinolin-5-yl)ethyl)amino)butyl)carbamoyl)thiophen-2-yl)methyl)amino)-2,3-dihydro-1H-indene-1-carboxylate] | 1 to 10 | < 1 |  | 
11 | Cc1cccc2c1CCC2(NCc1cccc(C(=O)NCCCCNC[C@H](O)c2ccc(O)c3[nH]c(=O)ccc23)c1)C(=O)O[C@H]1CN2CCC1CC2 (stereo partly drawn) [Compound 5, (R)-quinuclidin-3-yl 1-((3-((4-(((R)-2-hydroxy-2-(8-hydroxy-2-oxo-1,2-dihydroquinolin-5-yl)ethyl)amino)butyl)carbamoyl)benzyl)amino)-4-methyl-2,3-dihydro-1H-indene-1-carboxylate] | < 1 | < 1 |  | 
12 | O=C(O[C@H]1CN2CCC1CC2)C1(NCc2cccc(OCc3ccc(CNC[C@H](O)c4ccc(O)c5[nH]c(=O)ccc45)cc3)c2)CCc2ccccc21 (stereo partly drawn) [Compound 20, (R)-quinuclidin-3-yl 1-((3-((4-((((R)-2-hydroxy-2-(8-hydroxy-2-oxo-1,2-dihydroquinolin-5-yl)ethyl)amino)methyl)benzyl)oxy)benzyl)amino)-2,3-dihydro-1H-indene-1-carboxylate] | < 1 | 1 to 10 |  | 
13 | O=C(NC1(C(=O)O[C@H]2CN3CCC2CC3)CCc2ccccc21)c1ccc(OCc2ccc(CNC[C@H](O)c3ccc(O)c4[nH]c(=O)ccc34)cc2)cc1 (stereo partly drawn) [Compound 19, (R)-quinuclidin-3-yl 1-(4-((4-((((R)-2-hydroxy-2-(8-hydroxy-2-oxo-1,2-dihydroquinolin-5-yl)ethyl)amino)methyl)benzyl)oxy)benzamido)-2,3-dihydro-1H-indene-1-carboxylate] | > 10 | 1 to 10 |  | 
14 | O=C(NC1(C(=O)O[C@H]2CN3CCC2CC3)CCc2ccccc21)c1cccc(OCCCCCNC[C@H](O)c2ccc(O)c3[nH]c(=O)ccc23)c1 (stereo partly drawn) [Compound 2, (R)-quinuclidin-3-yl 1-(3-((5-(((R)-2-hydroxy-2-(8-hydroxy-2-oxo-1,2-dihydroquinolin-5-yl)ethyl)amino)pentyl)oxy)benzamido)-2,3-dihydro-1H-indene-1-carboxylate] |  |  | < 1 | < 1
15 | O=C(NCCCCNC[C@H](O)c1ccc(O)c2[nH]c(=O)ccc12)c1cccc(CNC2(C(=O)O[C@H]3CN4CCC3CC4)CCc3ccccc32)c1 (stereo partly drawn) [Compound 1, (R)-quinuclidin-3-yl 1-((3-((4-(((R)-2-hydroxy-2-(8-hydroxy-2-oxo-1,2-dihydroquinolin-5-yl)ethyl)amino)butyl)carbamoyl)benzyl)amino)-2,3-dihydro-1H-indene-1-carboxylate] | < 1 | < 1 |  | 
16 | O=C(NC1(C(=O)O[C@H]2CN3CCC2CC3)Cc2ccccc2C1)c1cccc(OCCCCCNC[C@H](O)c2ccc(O)c3[nH]c(=O)ccc23)c1 [Compound 13, (R)-quinuclidin-3-yl 2-(3-((5-(((R)-2-hydroxy-2-(8-hydroxy-2-oxo-1,2-dihydroquinolin-5-yl)ethyl)amino)pentyl)oxy)benzamido)-2,3-dihydro-1H-indene-2-carboxylate] | 1 to 10 | < 1 |  | 
17 | O=C(NC1(C(=O)OCC2CCN(Cc3ccco3)CC2)CCc2ccccc21)c1cccc(OCCCCCCNC[C@H](O)c2ccc(O)c3[nH]c(=O)ccc23)c1 (stereo partly drawn) [Compound 10, (1-(furan-2-ylmethyl)piperidin-4-yl)methyl 1-(3-((6-(((R)-2-hydroxy-2-(8-hydroxy-2-oxo-1,2-dihydroquinolin-5-yl)ethyl)amino)hexyl)oxy)benzamido)-2,3-dihydro-1H-indene-1-carboxylate] | > 10 | 1 to 10 |  | 
18 | O=C(NCCCCNC[C@H](O)c1ccc(O)c2[nH]c(=O)ccc12)c1cccc(C(=O)NC2(C(=O)O[C@H]3CN4CCC3CC4)CCc3ccccc32)c1 (stereo partly drawn) [Compound 8, (R)-quinuclidin-3-yl 1-(3-((4-(((R)-2-hydroxy-2-(8-hydroxy-2-oxo-1,2-dihydroquinolin-5-yl)ethyl)amino)butyl)carbamoyl)benzamido)-2,3-dihydro-1H-indene-1-carboxylate] | > 10 | 1 to 10 |  | 
19 | O=C(NC1(C(=O)O[C@H]2CN3CCC2CC3)CCc2ccccc21)c1cccc(COCCCCNC[C@H](O)c2ccc(O)c3[nH]c(=O)ccc23)c1 (stereo partly drawn) [Compound 12, (R)-quinuclidin-3-yl 1-(3-((4-(((R)-2-hydroxy-2-(8-hydroxy-2-oxo-1,2-dihydroquinolin-5-yl)ethyl)amino)butoxy)methyl)benzamido)-2,3-dihydro-1H-indene-1-carboxylate] | > 10 | 1 to 10 |  | 
